Reference: PubChem BioAssay (NCI)
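How tested: cells in 96-well plates exposed to compound for 48 hours at five concentrations. TGI denotes the concentration required for complete inhibition of growth.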

What was measured:
Assay in all cases: growth of human tumour cells (NCI), 48 h
NCI-H23 lung = test system: NCI-H23 lung
DU-145 prostate = test system: DU-145 prostate
MCF7 breast = test system: MCF7 breast
NCI-H226 lung = test system: NCI-H226 lung
ACHN renal = test system: ACHN renal
A549 NSCLC = test system: A549 NSCLC
MDA-MB-435 = test system: MDA-MB-435
MDA-N = test system: MDA-N
SK-MEL-2 melanoma = test system: SK-MEL-2 melanoma
T-47D breast = test system: T-47D breast
HCT-116 colon = test system: HCT-116 colon
NCI-H460 lung = test system: NCI-H460 lung
NCI-H522 lung = test system: NCI-H522 lung

Row | Structure (SMILES) | TGI (NCI-H23 lung) [µM] | TGI (DU-145 prostate) [µM] | TGI (MCF7 breast) [µM] | TGI (NCI-H226 lung) [µM] | TGI (ACHN renal) [µM] | TGI (A549 NSCLC) [µM] | TGI (MDA-MB-435) [µM] | TGI (MDA-N) [µM] | TGI (SK-MEL-2 melanoma) [µM] | TGI (T-47D breast) [µM] | TGI (HCT-116 colon) [µM] | TGI (NCI-H460 lung) [µM] | TGI (NCI-H522 lung) [µM]
1 | Cc1c(-c2ccccc2)c(C#N)c2nnn(C)c(=O)n12 | > 100 | > 100 | > 100 | > 100 | > 100 | > 100 | > 100 | > 100 | > 100 | > 100 | > 100 | > 100 | > 100
2 | COc1ccc(OC2OC(CO)C(O)C(O)C2O)cc1 (centres undefined) | > 100 | > 100 | > 100 | > 100 | > 100 | > 100 | > 100 | > 100 | > 100 | > 100 | > 100 | > 100 | > 100
3 | O=C(CSc1nc2ccc(I)cc2c(=O)n1Cc1ccccc1)NN1C(=O)CSC1c1ccccc1 (centres undefined) | 43.2 | 78.1 | 42.1 | > 100 | 33.1 | > 100 | 69.6 | > 100 | 50.8 | 92.5 | 56.1 | 36.3 | 35.5
4 | CC(C)(C)CN1[C@@H]2CCCC[C@H]2N(CC(C)(C)C)P1(=O)C(O)/C=C/c1ccccc1 (some centres undefined) | > 100 | > 100 | > 100 | 91.6 | 93.7 | > 100 | > 100 | > 100 | 93.1 | > 100 | > 100 | 85.3 | > 100
5 | Nc1ncc(N)c(NCC2(CO)CC(CCc3ccccc3)C2)n1 (centres undefined) | 20.8 | 24.2 | 15.9 | 18.4 | 24.5 | 28.8 | 22.9 | 21.5 | 23 | 9.82 | 20.1 | 30.5 | 3.58
6 | COC(=O)/C(C#N)=C(/NCc1ccccc1)Nc1ccccc1 | > 100 | > 100 | > 100 | > 100 | > 100 | > 100 | > 100 | > 100 | > 100 | > 100 | > 100 | > 100 | > 100
7 | COc1cc(OC)c2nc(C)c3c(c2c1)OCC3 | > 100 | > 100 | > 100 | > 100 | > 100 | > 100 | > 100 | > 100 | > 100 | > 100 | > 100 | > 100 | > 100
8 | COc1cc(/C=C2\CC(C)C/C(=C\c3ccc(O)c(OC)c3)C2=O)ccc1O (centres undefined) | 11 | 12.7 | 19.3 | 17.6 | 10.2 | 17.8 | 6.21 | 7.37 | 17.8 | 4.5 | 3.4 | 9.45 | 3.86
